Reference: patent US10159676B2, “Induction of tumor hypoxia for cancer therapy” (Virginia Commonwealth University, priority 2008, dated 2018)

What was measured:
[1] = in vivo; cited from earlier work
[2] = system: stage IV non-small cell lung cancer; details: cited from earlier work
[3] = cited from earlier work
tumor = details: tirapazamine alone given at 70 mg/kg; cited from earlier work
[4] = Weight loss in multiple dosing xenograft study; type: in vivo, nude mice; details: day 14; tirapazamine 60 mg/kg ip days 8, 10, 12 (alone or with stilbene 5c 50 mg/kg)
Experimental: Next we measured the size of tumor xenografts after multiple dosing. Nude mice were injected subcutaneously with UCI-101 cells and tumor became visible after day 7. Treatment was administered by intraperitoneal injection on days 8, 10 and 12 with 6 mice in each group. […] […]. […].

UCI-101 tumor xenografts = assay: Tumor xenograft size after multiple dosing (days 8, 10, 12); type: in vivo, nude mice; details: ip on days 8, 10 and 12; stilbene 5c 50 mg/kg, tirapazamine 60 mg/kg; day 14; 6 mice per group
Experimental: The long and short axes of tumor were measured to calculate tumor size and plotted against days. Each treatment group contains 6 mice.
Mice were then sacrificed at day 14. The long and short axes of tumors were measured to calculate tumor size and plotted against days. Each treatment group contains 6 mice.
Tumor cell lines used in this study include UCI-101 ovarian cancer cells and Hep3B hepatocellular carcinoma cells. Cells are grown in IMEM and DMEM, respectively, supplemented with 10% fetal bovine serum, glutamine, and penicillium/streptomycin in 5% CO2 humidified environment. When cells were grown to 80% confluent, cells were harvested with 1% trypsin and washed with phosphate-buffered saline three times before injected subcutaneously into nude mice. For mouse xenograft studies, 2×10^6 tumor cells were injected in the back subcutaneously. Nude mice were purchased from NCI Development Therapeutic Program as described. Tumor size was monitored by long and short axes (a and b, respectively) by a caliber and tumor volume was calculated by the formula ab^2/2. […] Treatment with AAA bevacizumab was done by tail vein injection at a dose of 10 mg/kg.
Next we measured the size of tumor xenografts after multiple dosing. Nude mice were injected subcutaneously with UCI-101 cells and tumor became visible after day 7. […] Tumor xenografts were measured and sizes are plotted in FIG. 7.

hypoxic cells = details: cited from earlier work
UCI-101 tumor xenograft = assay: Tumor growth, stilbene 5c with or without bevacizumab; type: in vivo, nude mice; details: stilbene 5c 20 mg/kg/day Monday to Friday for two weeks; bevacizumab 10 mg/kg twice a week for 5 doses
Experimental: FIG. 4. Efficacy of stilbene 5c in vivo and enhanced effect by bevacizumab. Nude mice were injected with UCI-101 cells subcutaneously and mice are treated with stilbene 5c at 20 mg/kg/day Monday-Friday with or without bevacizumab 10 mg/kg twice a week. Tumor volume was calculated by the long and short axes. Each group contains 8 mice and the average tumor volumes and standard deviations were plotted against days.
Tumor cell lines used in this study include UCI-101 ovarian cancer cells and Hep3B hepatocellular carcinoma cells. Cells are grown in IMEM and DMEM, respectively, supplemented with 10% fetal bovine serum, glutamine, and penicillium/streptomycin in 5% CO2 humidified environment. When cells were grown to 80% confluent, cells were harvested with 1% trypsin and washed with phosphate-buffered saline three times before injected subcutaneously into nude mice. For mouse xenograft studies, 2×10^6 tumor cells were injected in the back subcutaneously. Nude mice were purchased from NCI Development Therapeutic Program as described. Tumor size was monitored by long and short axes (a and b, respectively) by a caliber and tumor volume was calculated by the formula ab^2/2. […]. Treatment with AAA bevacizumab was done by tail vein injection at a dose of 10 mg/kg.
Next we used ovarian cancer UCI101 cells to study the in vivo efficacy of stilbene 5c We first administered stilbene 5c with intraperitoneal injection at 25 mg/kg three times a week. Tumor volume was calculated by measuring the long and short axes. […] The failure could be due to the possibility that intermittent dosing leaves a viable rim of tumor, which survives the treatment of VDAs by getting nutritional and blood support from surrounding normal vasculature. When treatment with VDAs is stopped, the viable rim of tumor grows quickly. Tumor vasculature recovers quickly by recruitment of the mobilized endothelial progenitor cells. Based on this rationale, we combined stilbene 5c with bevacizumab, which was used to neutralize VEGF secreted by UCI-101 tumor cells. […]

[5] = in vivo; cited from earlier work; remark: listed apart in the source
[6] = phase I, intravenous every three weeks

Molecule	potential side effects in animal studies [1]	response rate, overall survival, or progression free survival ([2]; tirapazamine 260-330 mg/m^2 added to carboplatin and paclitaxel vs placebo)	systemic toxicity ([2]; tirapazamine added to carboplatin and paclitaxel vs placebo)	tolerated dose, tirapazamine by itself ([3]; phase I and phase II trials)	dose with dose limiting toxicities (reversible ototoxicity and transient visual abnormality) [3, 6]	maximum tolerated dose (MTD) [3, 6]	tumor growth suppression (tumor)	weight loss [4]	size of tumor compared with the control (UCI-101 tumor xenografts)	greater toxicity to hypoxic cells compared to well-oxygenated cells (hypoxic cells)	tumor growth suppression (UCI-101 tumor xenograft)	half-life [5]
Nc1n[n+]([O-])c2ccccc2[n+]1[O-] [tirapazamine, 3-amino-1,2,4-benzotriazine-1,4-di-N-oxide]	bone marrow toxicity, necrosis of the olfactory nerve, and retinal degeneration	no benefit	increased systemic toxicity	up to 390 mg/m^2	above 330 mg/m^2	390 mg/m^2	no effect	20%	about 50%	15-200 fold		
bevacizumab: a monoclonal antibody against vascular endothelial growth factor (VEGF) [reference compound]											about 25%	over 7 days
